Values quoted from earlier work in US10842782B2, “Storage stable composition comprising rifaximin alpha” (Sandoz AG, priority 2016, dated 2020).

Details: single 400 mg dose

| SMILES | AUC [ng·h/mL] | Cmax [ng/mL] |
| --- | --- | --- |
| CO[C@H]1/C=C/O[C@@]2(C)Oc3c(C)c(O)c4c(O)c(c5c(nc6cc(C)ccn65)c4c3C2=O)NC(=O)/C(C)=C\C=C\[C@H](C)[C@H](O)[C@@H](C)[C@@H](O)[C@@H](C)[C@H](OC(C)=O)[C@@H]1C [Alpha, (2S,16Z,18E,20S,21S,22R,23R,24R,25S,26S,27S,28E)-5,6,21,23,25-pentahydroxy-27-methoxy-2,4,11,16,20,22,24,26-octamethyl-2,7-(epoxypentadeca[1,11,13]trienimino) benzofuro[4,5-e]pyrido[1,2-a]-benzimidazole-1,15(2H)-dione,25-acetate] | 17 | 2.6 |
| CO[C@H]1/C=C/O[C@@]2(C)Oc3c(C)c(O)c4c(O)c(c5c(nc6cc(C)ccn65)c4c3C2=O)NC(=O)/C(C)=C\C=C\[C@H](C)[C@H](O)[C@@H](C)[C@@H](O)[C@@H](C)[C@H](OC(C)=O)[C@@H]1C [Delta, (2S,16Z,18E,20S,21S,22R,23R,24R,25S,26S,27S,28E)-5,6,21,23,25-pentahydroxy-27-methoxy-2,4,11,16,20,22,24,26-octamethyl-2,7-(epoxypentadeca[1,11,13]trienimino) benzofuro[4,5-e]pyrido[1,2-a]-benzimidazole-1,15(2H)-dione,25-acetate] | 830 | 308.3 |
